Entries after “also recorded” stand apart in the source; their conditions may differ.
How the values were obtained:
[1] = target: T1, Stim1 or Orai1 puncta (Homo sapiens, UniProt Q96D31); assay: Orai1 and Stim1 puncta in HEK293T cells overexpressing CFP-Orai1/Stim1-mCherry after thapsigargin; type: cell-based; settings: 10 μM pretreatment 30 min, 1 μM thapsigargin 15 min
T1 construct: expressed in transfected cells; host or cells: HEK293T
Experimental: FIG. 1A, FIG. 1B, FIG. 1C, FIG. 1D, FIG. 1E, FIG. 1F, FIG. 1G, FIG. 1H, FIG. 1I, FIG. 1J, FIG. 1K, FIG. 1L, FIG. 1M, and FIG. 1N show WRG-28 and atovaquone (Av) suppress the activation of DDR2 and calcium release-activated calcium (CRAC) channel. FIG. 1A indicates HEK293T cells were transiently overexpressed with DDR2 and then pretreated with different compounds (10 μM), including WRG-28, Av, donepezil hydrochloride (Dh), terazosin hydrochloride (Th), verapamil and flecainide for 30 minutes. Verapamil and flecainide were used as negative control here. After that, cells were treated with 50 μg/mL type I collagen for 12 hours. Cell lysates were harvested and subjected to Western blot analysis with antibodies against phosphotyrosine antibody (clone 4G10), DDR2, and β-actin. […] CRAC channel activity was evaluated by applying 1 μM thapsigargin (Thap.) in a calcium-free solution to deplete the endoplasmic reticulum calcium store, followed by the reintroduction of 2 mM Ca^2+ in an external solution. The concentration of cytosolic calcium ions increases as calcium flows through the CRAC channel, leading to the second peak in cytosolic calcium waves. […] Further analyses are presented in FIG. 1I and FIG. 1J, where the second peak of each wave and rate of entry were analyzed. […] The Orai1 and Stim1 puncta in HEK293T cells overexpressed with CFP-Orai1/Stim1-mCherry were assessed. […]

[2] = system: UUO-induced renal fibrosis; assay: Unilateral ureteral obstruction (UUO) renal fibrosis model; type: in vivo, mouse; settings: for UUO-induced downregulation of E-cadherin (kidney, Western blot) / UUO-induced upregulation of integrin β1, DDR2, collagen 1a1, and α-SMA (kidney, Western blot) / area positively stained with fibrillar collagen (Sirius red) / histology: UUO-induced tubular dilation and interstitial expansion (H&E): 5 mg/kg/day for 7 days; for apoptotic tubular cells (TUNEL): 5 mg/kg/day for 7 days during ureter obstruction
Experimental: Surgical ligation was performed on the left ureter of 7-to-8-week-old male mice using a nylon surgical suture. Subsequently, the mice were treated with 5 mg/kg/day of DMSO (control), BTP2, WRG-28, or Av for 7 days. […] FIG. 5B illustrates the evaluation of fibrillar collagen expression levels via Sirius red staining. FIG. 5C presents the measurement of the Sirius red-positive area using Image J. FIG. 5D, FIG. 5E, FIG. 5F, FIG. 5G, and FIG. 5H depict the protein levels of integrin β1, DDR2, Collagen 1a1, α-SMA, and E-cadherin in kidney samples from mice treated with 5 mg/kg/day of BTP2 (FIG. 5D), WRG-28 (FIG. 5F), or Av (FIG. 5H), which were assessed by Western blot analysis. […] FIG. 5K illustrates the evaluation of apoptotic cells from 5-10 pictures in each condition.
Cell lysates were harvested in RIPA buffer (150 mM NaCl, 1 mM EGTA, 50 mM Tris pH 7.4, 10% glycerol, 1% Triton X-100, 1% sodium deoxycholate, 0.1% SDS, and protease inhibitor cocktail) and collected from culture dish with cell scrapers. For tissue sample preparation, half of the kidney tissues were cut into ˜1 mm3 and then put into 500 μl RIPA buffer in 2 ml tubes. Mechanical homogenizers by agitating beads at high speeds for 30 seconds were used for tissue protein extraction. Protein samples in supernatants were collected after centrifuging the tubes at 10000 g for 10 min at 4° C. 20-30 μg protein samples were resolved by 7.5% or 10% SDS-PAGE. The protein expression levels were assessed by specific primary antibodies, including antibodies against phosphotyrosine (clone 4G10; Millipore), DDR2 (R&D), α-SMA (Sigma), Collagen 1a1 (Boster), E-cadherin (BD Biosciences), SGLT2 (Proteintech), NHE1 (Novus) and β-actin (Clone C4, Millipore), followed by incubating with secondary antibodies conjugated with HRP and detected by ECL kit (Thermo Scientific).
Procedures involving animal subjects have been approved by the Institutional Animal Care and Use Committee (IACUC) at the National Laboratory Animal Center. 7-8 weeks old male C57BL/6 mice were obtained from the animal center. Unilateral ureteral obstruction (UUO) was performed by ligating the left ureter and mice were treated with 5 mg/kg/day DMSO, BTP2, WRG-28, or Av for 7 days after ligation. After 7 days, mice were sacrificed and the kidneys were removed and used for analysis. One-quarter of the kidney was fixed by 4% paraformaldehyde and embedded in paraffin or one-quarter of the kidney was embedded in the Tissue-Tek OCT compound. Half of the kidneys are used for protein analysis. In the reversible unilateral ureteral obstruction (RUUO) experiment, the ligated-left ureter was re-connected to the bladder after UUO surgery for 7 days. The compounds, WRG-28 and Av, were injected during ligation (7*/15d) or after ligation was released (7/15*d). To assess the kidney function, the right ureter was ligated the day before leaving mice in the metabolic cage. The urine and blood were collected for blood urea nitrogen (BUN) and creatinine (CRE) test.
Deparaffinize and rehydrate tissue slides were immersed in filtered Harris Hematoxylin for 10 seconds. After extensively washing in tap water, samples were immersed in Alcoholic-Eosin for 2 minutes. The tissue was then dehydrated and mounted by resinous medium and glass coverslips.
Deparaffinize and rehydrate tissue slides were stained with Picrosirius red for one hour, followed by an extensive wash with acidified water. After dehydration through 3 runs of change of 95% ethanol, 2 runs of change of 100% ethanol, and 3 runs of change of xylene, tissue slides were mounted by resinous mounting medium and glass coverslips. […]
The TUNEL assay kit was purchased from Abcam (ab206386). The procedure was carried out following the manufactory's instructions. […]

T1 sequence (Q96D31 whole entry): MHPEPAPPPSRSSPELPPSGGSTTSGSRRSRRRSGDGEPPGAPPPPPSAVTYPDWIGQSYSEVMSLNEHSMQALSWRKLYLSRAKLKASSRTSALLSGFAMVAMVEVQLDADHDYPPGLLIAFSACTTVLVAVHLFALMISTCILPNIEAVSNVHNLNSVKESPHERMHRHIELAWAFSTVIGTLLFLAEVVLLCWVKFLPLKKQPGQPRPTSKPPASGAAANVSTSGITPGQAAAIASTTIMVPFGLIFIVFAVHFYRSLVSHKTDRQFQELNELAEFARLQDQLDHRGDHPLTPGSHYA

Structure (SMILES)	formation of Stim1 or Orai1 puncta induced by store depletion [1]	UUO-induced downregulation of E-cadherin (kidney, Western blot) [2]	UUO-induced upregulation of integrin β1, DDR2, collagen 1a1, and α-SMA (kidney, Western blot) [2]	area positively stained with fibrillar collagen (Sirius red) [2]	histology: UUO-induced tubular dilation and interstitial expansion (H&E) [2]	apoptotic tubular cells (TUNEL) [2]
Cc1nnsc1C(=O)Nc1ccc(-n2nc(C(F)(F)F)cc2C(F)(F)F)cc1 [BTP2]	unaffected	reversing	suppressed	significantly reduced	appeared to mitigate the effects caused by UUO	notably reduced
CCNS(=O)(=O)c1ccc(COc2ccc3nc4ccc(=O)cc-4oc3c2)cc1 [WRG-28]	unaffected	reversing	suppressed	significantly reduced	appeared to mitigate the effects caused by UUO	notably reduced; also recorded: significantly reduced

From patent publication US20250339443A1, “METHOD FOR TREATING OR PREVENTING CALCIUM RELEASE-ACTIVATED CALCIUM CHANNEL OR DISCOIDIN DOMAIN RECEPTOR 2 RELATED DISORDERS OR CONDITIONS” (LumiSTAR Biotechnology, Inc., priority 2023, published 2025)
